# Experimental data from paper PMC11040648, “Highly tunable bimane-based fluorescent probes: design, synthesis, and application as a selective amyloid binding dye” (Chemical Science, 2024).
# Target: T1, tau (fibrils) (Homo sapiens, UniProt P10636)
# T1 construct: gene MAPT; tau amyloid fibrils
# Assay: fluorescence turn-on with […] fibrils ([…] lower than αS), emission maximum […] nm
# Type: binding
# T1 sequence (P10636 1-441 isoform P10636-8): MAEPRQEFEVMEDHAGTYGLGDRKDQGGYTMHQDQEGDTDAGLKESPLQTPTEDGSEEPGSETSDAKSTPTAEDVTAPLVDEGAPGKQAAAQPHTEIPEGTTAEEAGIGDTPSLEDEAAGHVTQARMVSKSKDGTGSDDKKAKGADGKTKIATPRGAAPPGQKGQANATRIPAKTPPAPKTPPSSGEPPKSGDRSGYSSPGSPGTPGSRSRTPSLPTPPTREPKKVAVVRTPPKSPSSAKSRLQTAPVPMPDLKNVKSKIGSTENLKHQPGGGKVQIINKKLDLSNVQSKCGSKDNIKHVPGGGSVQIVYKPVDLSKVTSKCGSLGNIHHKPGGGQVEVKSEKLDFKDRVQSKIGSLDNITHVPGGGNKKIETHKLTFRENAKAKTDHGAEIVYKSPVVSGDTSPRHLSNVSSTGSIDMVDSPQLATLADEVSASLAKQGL
compound,measurement,value
Cc1c(C)n2c(/C=C/c3ccc(N(C)C)cc3)c(C)c(=O)n2c1=O [5k],"fluorescence turn-on with 10 μM fibrils (2.8-fold lower than αS), emission maxim","although 5k binds to both αS and tau, it has a greater fluorescence activation"
